Patent publication US20110112158A1, “BENZISOXAZOLE ANALOGS AS GLYCOGEN SYNTHASE ACTIVATORS” (priority 2009, published 2011)

Tested on: glycogen synthase
Experiment: Glycogen Synthase (GS) Assay
Assay type: biochemical
Conditions: for EC50: compound concentration needed to give 50% maximum activation; for GS SC200: compound concentration needed to stimulate 200% of the enzyme activity
Experimental: Twelve μl per well of substrate solution containing glycogen (4.32 mg/ml), 2.67 mM UDP-glucose, 21.6 mM phospho(enol)pyruvate and 2.7 mM NADH in 30 mM glycylglycine, pH 7.3 buffer was added into a polystyrene 384-well assay plate (BD Biosciences).
Compound solutions (8 μl/well) at various concentrations (0-300 μM) were added to the assay plate (columns 5-24). Compound solution contains 30 mM glycylglycine, pH 7.3, 40 mM KCl, 20 mM MgCl2, 9.2% DMSO, with (columns 15-24) or without (columns 5-14) 20 mM glucose 6-phosphate.
Enzyme solution (12 μl/well) containing glycogen synthase (16.88 μg/ml), pyruvate kinase (0.27 mg/ml), lactate dehydrogenase (0.27 mg/ml) in 50 mM Tris-HCl, pH 8.0, 27 mM DTT and bovine serum albumin (BSA, 0.2 mg/ml) was added to the assay plate (columns 3-24). As a blank control, enzyme solution without glycogen synthase was added into the top half wells of columns 1-2. To the bottom half wells of columns 1-2 were added a known activator, glucose 6-phosphate (at final concentration 5 mM) in addition to the enzyme solution. The reaction mixture was incubated at room temperature. The assay plate was then read for absorbance at 340 nm on an Envision reader every 3 minutes up to a total of 15 minutes.
The enzyme activity (with or without compound) was calculated by the reaction rate and represented by the optical density change (μOD) per minute. Percent stimulation of glycogen synthase activity by a compound at various concentrations was calculated by the following formula: […]
wherein Rs is the reaction rate of the enzyme in the presence of compound and Rt is the reaction rate of the enzyme in the absence of compound.
SC200 is defined as the compound concentration that is needed to stimulate 200% of the enzyme activity. EC50 is defined as the compound concentration that is needed to give 50% maximum activation.

## COCCN(CC(=O)O)c1noc2ccc(COc3ccc(-c4cc(F)c(F)cc4OC)cc3)cc12 [Example 14, [[5-(4′,5′-Difluoro-2′-methoxy-biphenyl-4-yloxymethyl)-benzo[d]isoxazol-3-yl]-(2-methoxy-ethyl)-amino]-acetic acid]
  EC50: 365 nM
  GS SC200: 0.098 µM

## COc1cc(F)c(F)cc1-c1ccc(OCc2ccc3onc(N)c3c2)cc1 [Example 1, 5-(4′,5′-Difluoro-2′-methoxy-biphenyl-4-yloxymethyl)-benzo[d]isoxazol-3-ylamine]
  EC50: 1490 nM
  GS SC200: 0.688 µM

## COc1cc(F)c(F)cc1-c1ccc(OCc2ccc3onc(N(CC(=O)O)CC4CC4)c3c2)cc1 [Example 17]
  EC50: 1160 nM
  GS SC200: 0.438 µM

## COCCCN(CC(=O)O)c1noc2ccc(COc3ccc(-c4cc(F)c(F)cc4OC)cc3)cc12 [Example 15, [[5-(4′,5′-Difluoro-2′-methoxy-biphenyl-4-yloxymethyl)-benzo[d]isoxazol-3-yl]-(3-methoxy-propyl)-amino]-acetic acid]
  EC50: 514 nM
  GS SC200: 0.169 µM

## Cc1cc(F)c(F)cc1-c1ccc(OCc2cccc3c(O)noc23)cc1 [Example 13, 7-(4′,5′-Difluoro-2′-methyl-biphenyl-4-yloxymethyl)-benzo[d]isoxazol-3-ol]
  EC50: 792 nM
  GS SC200: 0.523 µM

## COc1cc(F)c(F)cc1-c1ccc(OCc2ccc3onc(OC(C(=O)O)c4ccccc4)c3c2)cc1 (stereo not shown) [Example 8, [5-(4′,5′-Difluoro-2′-methoxy-biphenyl-4-yloxymethyl)-benzo[d]isoxazol-3-yloxy]-phenyl-acetic acid]
  EC50: 1760 nM
  GS SC200: 0.723 µM

## COc1cc(F)c(F)cc1-c1ccc(OCc2ccc3onc(O)c3c2)cc1 [Example 4, 5-(4′,5′-Difluoro-2′-methoxy-biphenyl-4-yloxymethyl)-benzo[d]isoxazol-3-ol]
  EC50: 172 nM
  GS SC200: 0.032 µM

## COc1cc(F)c(F)cc1-c1ccc(OCc2cccc3c(O)noc23)cc1 [Example 11, 7-(4′,5′-Difluoro-2′-methoxy-biphenyl-4-yloxymethyl)-benzo[d] isoxazol-3-ol]
  EC50: 158 nM
  GS SC200: 0.014 µM

## COc1cc(F)c(F)cc1-c1ccc(OCc2ccc3onc(OCCC(=O)O)c3c2)cc1 [Example 9, 3-[5-(4′,5′-Difluoro-2′-methoxy-biphenyl-4-yloxymethyl)-benzo[d]isoxazol-3-yloxy]-propionic acid]
  EC50: 1700 nM
  GS SC200: 0.61 µM

## Oc1noc2c(COc3ccc(-c4cc(F)c(F)cc4F)cc3)cccc12 [Example 10, 7-(2′,4′,5′-Trifluoro-biphenyl-4-yl-oxymethyl)-benzo[d]isoxazol-3-ol]
  EC50: 836 nM
  GS SC200: 0.148 µM

## Oc1noc2ccc(COc3ccc(-c4cc(F)c(F)cc4F)cc3)cc12 [Example 20, 5-(2′,4′,5′-Trifluoro-biphenyl-4-yloxymethyl)-benzo[d]isoxazol-3-ol]
  EC50: 422 nM
  GS SC200: 0.247 µM

## COc1cc(F)c(F)cc1-c1ccc(OCc2ccc3onc(OC(C)(C)C(=O)O)c3c2)cc1 [Example 6, 2-[5-(4′,5′-Difluoro-2′-methoxy-biphenyl-4-yloxymethyl)-benzo[d]isoxazol-3-yloxy]-2-methyl-propionic acid]
  EC50: 777 nM
  GS SC200: 0.348 µM

## COc1cc(F)c(F)cc1-c1ccc(OCc2ccc3onc(N(CC(=O)O)CC4CCOCC4)c3c2)cc1 [Example 18, [[5-(4′,5′-Difluoro-2′-methoxy-biphenyl-4-yloxymethyl)-benzo[d]isoxazol-3-yl]-(tetrahydro-pyran-4-ylmethyl)-amino]-acetic acid]
  EC50: 713 nM
  GS SC200: 0.249 µM

## COc1cc(F)c(F)cc1-c1ccc(OCc2ccc3onc(OCC(=O)O)c3c2)cc1 [Example 5, [5-(4′,5′-Difluoro-2′-methoxy-biphenyl-4-yloxymethyl)-benzo[d]isoxazol-3-yloxy]-acetic acid]
  EC50: 1350 nM
  GS SC200: 0.492 µM

## Oc1noc2c(COc3ccc(-c4cc(F)c(F)cc4Cl)cc3)cccc12 [Example 12, 7-(2′-Chloro-4′,5′-difluoro-biphenyl-4-yloxymethyl)-benzo[d]isoxazol-3-ol]
  EC50: 702 nM
  GS SC200: 0.406 µM

## COc1cc(F)c(F)cc1-c1ccc(OCc2cccc3c(N(C)CC(=O)O)noc23)cc1 [Example 19, {[7-(4′,5′-Difluoro-2′-methoxy-biphenyl-4-yloxymethyl)-benzo[d]isoxazol-3-yl]-methyl-amino}-acetic acid]
  EC50: 4220 nM
  GS SC200: 1.57 µM

## COc1cc(F)c(F)cc1-c1ccc(OCc2ccc3onc(OC(C)C(=O)O)c3c2)cc1 (stereo not shown) [Example 7, 2-[5-(4′,5′-Difluoro-2′-methoxy-biphenyl-4-yloxymethyl)-benzo[d]isoxazol-3-yloxy]-propionic acid]
  EC50: 662 nM
  GS SC200: 0.218 µM

## CCN(CC(=O)O)c1noc2ccc(COc3ccc(-c4cc(F)c(F)cc4OC)cc3)cc12 [Example 16, {[5-(4′,5′-Difluoro-2′-methoxy-biphenyl-4-yloxymethyl)-benzo[d]isoxazol-3-yl]-ethyl-amino}-acetic acid]
  EC50: 631 nM
  GS SC200: 2.18 µM

## CNc1noc2ccc(COc3ccc(-c4cc(F)c(F)cc4OC)cc3)cc12 [Example 2]
  EC50: 1970 nM
  GS SC200: 0.514 µM

## COc1cc(F)c(F)cc1-c1ccc(OCc2ccc3onc(N(C)CC(=O)O)c3c2)cc1 [Example 3]
  EC50: 302 nM
  GS SC200: 0.024 µM
